Test results from paper PMC7126871 (Bioorganic & Medicinal Chemistry Letters, 2012).

Columns and labels:
[1] = tested on: HCV (1b) subgenomic replicon; format: cell-based
[2] = tested on: Coxsackie A strains A7 or A21; test: organism not typed; format: cell-based; details: MRC5, read-out: EC50 Coxsackie A
panel of RNA viruses = format: cell-based
replicon cells = details: human
cancer cell lines = details: cited from earlier work
[3] = pH <7; cited from earlier work

| SMILES | selectivity index (CC50/EC50) [1] | EC50 [2] [µM] | antiviral activity against panel of RNA viruses (in words) (panel of RNA viruses) | other results |
| --- | --- | --- | --- | --- |
| CC(C)(C)C(=O)SCCOP(=O)(OCCSC(=O)C(C)(C)C)OC[C@H]1O[C@@](C#N)(c2ccc3c(N)ncnn23)[C@H](O)[C@@H]1O [Compound 9a] | – | – | – | replicon activity compared to the parent nucleosides (in words) [1]: markedly enhanced replicon activity |
| C#C[C@@]1(c2ccc3c(N)ncnn23)O[C@H](COP(=O)(OCCSC(=O)C(C)(C)C)OCCSC(=O)C(C)(C)C)[C@@H](O)[C@H]1O [Compound 9d] | less than 10 fold | – | – | – |
| C=C[C@@]1(c2ccc3c(N)ncnn23)O[C@H](CO)[C@@H](O)[C@H]1O [Compound 3c] | – | > 30 | reduced potency and a narrower spectrum of antiviral activity | – |
| CC(C)(C)C(=O)SCCOP(=O)(OCCSC(=O)C(C)(C)C)OC[C@H]1O[C@@](C)(c2ccc3c(N)ncnn23)[C@H](O)[C@@H]1O [Compound 9b] | less than 10 fold | – | – | replicon activity compared to the parent nucleosides (in words) [1]: markedly enhanced replicon activity |
| C#C[C@@]1(c2ccc3c(N)ncnn23)O[C@H](CO)[C@@H](O)[C@H]1O [Compound 3d] | – | > 30 | no activity | – |
| C[C@@]1(c2ccc3c(N)ncnn23)O[C@H](CO)[C@@H](O)[C@H]1O [Compound 3b] | – | > 30 | reduced potency and a narrower spectrum of antiviral activity | CC50 (replicon cells): > 89 µM |
| Nc1ncnc2c1ccn2[C@@H]1O[C@H](CO)[C@@H](O)[C@H]1O [Compound 1, 7-Deazaadenosine] | – | – | – | cytotoxicity (in words) (cancer cell lines): cytotoxic |
| N#C[C@@]1(c2ccc3c(N)ncnn23)O[C@H](CO)[C@@H](O)[C@H]1O [Compound 3a] | – | > 30 | broader spectrum activity | – |
| C=C[C@@]1(c2ccc3c(N)ncnn23)O[C@H](COP(=O)(OCCSC(=O)C(C)(C)C)OCCSC(=O)C(C)(C)C)[C@@H](O)[C@H]1O [Compound 9c] | less than 10 fold | – | – | – |
| C[C@@]1(n2cnc3c(N)ncnc32)O[C@H](CO)[C@@H](O)[C@H]1O [1′-C-Me adenosine] | – | – | – | stability in aqueous solutions [3]: rapidly degraded |
